Laboratory results: patent publication US20160108098A1, “THERAPEUTIC PEPTIDES” (GLAXOSMITHKLINE INTELLECTUAL PROPERTY DEVELOPMENT LIMITED, priority 2013, published 2016)

Columns and labels:
[1] = chronic (41 days) efficacy study in diet-induced obese (DIO) Long Evans rats: body weight, body composition, food intake; type: in vivo, Long Evans rat; details: for weight loss vs. vehicle: 40 days, subcutaneous osmotic pumps, ED50 doses; for fat mass lost from vehicle control: QMR, day 40 of treatment; for inhibition of cumulative food intake: treatment period, vs. vehicle control
Method: Rats were 17 weeks old at the start of the study. The rats were housed 1 per cage and given ad libitum access to TD.95217 chow and water, maintained on a 12 h light/dark cycle from 5:00 AM to 5:00 PM at 21° C. and 50% relative humidity and allowed to acclimate for at least 7 days prior to baseline measurements. Baseline fat mass and non-fat mass measurements were taken 3 days before the start of peptide infusion and on day 40 of treatment using a QMR instrument (Echo Medical Systems, Houston, Tex.). […] Each rat was implanted with two osmotic pumps subcutaneously in the scapula region containing vehicle or peptide according to their treatment group. Body weight and food intake were measured twice per week beginning three days before the 41-day treatment period. On day 41 of treatment, whole blood was collected by cardiac stick under isoflurane anesthesia. Plasma and serum were then prepared from the whole blood for serum chemistry analysis. All the data are presented as mean±SEM. The data were analyzed in either Prism (GraphPad Software, Inc., La Jolla, Calif.) or Excel using a Student's T-test to compare each group to the appropriate control group. P-values<0.05 were considered to indicate a significant difference between treatment groups.

[2] = chronic (26 days) efficacy study in Zucker Diabetic Fatty (ZDF) rats: glucose, HbA1c; type: in vivo, Zucker Diabetic Fatty (ZDF) rat; details: for ΔΔ % HbA1c / ΔΔGlucose: 26 days of treatment, change from baseline and vehicle control; for ΔΔGlucose: ED20 doses
Text: Male ZDF rats were 12 weeks old at the start of the study (Charles River, Inc. Boston, Mass.). […] Baseline fat mass and non-fat mass measurements were taken 3 days before the start of peptide infusion and on day 26 of treatment using a QMR instrument (Echo Medical Systems, Houston, Tex.). […] P-values<0.05 were considered to indicate a significant difference between treatment groups.

[3] = cumulative food intake, diet-induced obese mice (Model B), BioDaQ system; type: in vivo; details: diet-induced obese C57BL/6 mice, 1 mg/kg subcutaneously, cumulative food intake after 6 h, relative to vehicle controls
Method: Cumulative food intake after 6 h was determined for the PYY analogs in either lean (Model A) or diet-induced obese (DIO) (Model B) C57BL/6 mice in a BioDaQ system for continuous monitoring of food intake (Research Diets Inc., New Brunswick, N.J.). […] Mice were placed singly into the BioDaQ cages and acclimatized for a minimum of 6 days and were allowed ad libitum access to food and water. Approximately 1 hour prior to lights-out, animals were dosed subcutaneously with either vehicle (20 mM Acetate buffer, pH 4.9 or 20% DMSO in water) or analogs dissolved in vehicle (1 mg/kg) (8 animals per group). Once all animals have been dosed, feeder gates were opened providing ad-libitum access to food. Continuous food intake was monitored and collected for 15 hours. […] P-values<0.05 were considered to indicate a significant difference between treatment groups.

[4] = molecular target: T1, human Neuropeptide Y receptor type 2 (Homo sapiens, UniProt P49146); test: melanophore assay, potency at the human Neuropeptide Y receptor type 2; type: cell-based; details: read-out: hNPY Y2 pEC50 (converted)
T1 construct: expressed in transfected cells; host or cells: melanophores; own knowledge: in the cited Jayawickreme protocol these are Xenopus laevis melanophores transfected with the receptor
T1 sequence (P49146 1-381): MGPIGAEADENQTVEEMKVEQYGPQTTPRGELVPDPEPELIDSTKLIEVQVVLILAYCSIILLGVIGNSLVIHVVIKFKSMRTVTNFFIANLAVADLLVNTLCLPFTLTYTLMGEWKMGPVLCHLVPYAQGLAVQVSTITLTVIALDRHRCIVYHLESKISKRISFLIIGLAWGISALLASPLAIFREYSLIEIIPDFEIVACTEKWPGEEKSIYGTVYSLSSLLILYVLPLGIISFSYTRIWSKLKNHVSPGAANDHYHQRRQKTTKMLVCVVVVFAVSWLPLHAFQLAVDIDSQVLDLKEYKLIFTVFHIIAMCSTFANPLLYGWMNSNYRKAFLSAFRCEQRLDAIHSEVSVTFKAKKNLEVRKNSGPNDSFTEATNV

EC50 [4] | Compound | weight loss vs. vehicle [1] | fat mass lost from vehicle control [1] | ED50 for weight loss ([1]; dose used for infusion) | inhibition of cumulative food intake [1] | ΔΔ % HbA1c [2] | ΔΔGlucose [2] | ΔΔGlucose ([2]; listed as Exendin-4) | ED20 for HbA1c lowering ([2]; dose used for infusion) | % reduction in food intake, model B [3]
– | exendin-4 | −11.3% | −55.8 grams | 0.15 mg/kg/day | −20.1% | −0.4 ± 0.2% | -53.9 mg/dL | -53.9 ± 18.3 mg/dL | 0.0055 mg/kg/day | –
– | PYY(3-36)NH2 | −1.3% | −10.9 grams | – | −0.7% | 0.01 ± 0.4% | −33.1 ± 17^ mg/dL | – | – | –
0.251 nM | CC(C)C[C@H](NC(=O)[C@H](CO)NC(=O)[C@H](C)NC(=O)[C@H](Cc1ccc(O)cc1)NC(=O)[C@H](Cc1ccc(O)cc1)NC(=O)[C@H](CCCNC(=N)N)NC(=O)[C@H](CC(N)=O)NC(=O)[C@H](Cc1c[nH]c2ccccc12)NC(=O)[C@H](CCC(=O)O)NC(=O)[C@H](CCC(=O)O)NC(=O)[C@@H]1CCCN1C(=O)[C@H](CO)NC(=O)[C@H](C)NC(=O)[C@H](CC(=O)O)NC(=O)[C@H](CCCCN)NC(=O)CNC(=O)[C@@H]1CCCN1C(=O)[C@H](Cc1c[nH]cn1)NC(=O)[C@H](CCC(=O)O)NC(=O)[C@@H]1CCCN1C(=O)[C@H](CCCCN)NC(=O)[C@@H]1CCCN1)C(=O)N[C@@H](CCCNC(=N)N)C(=O)N[C@@H](CCCCN)C(=O)N[C@@H](Cc1ccc(O)cc1)C(=O)N[C@@H](CC(C)C)C(=O)N[C@@H](CC(N)=O)C(=O)N[C@@H](Cc1c[nH]c2ccccc12)C(=O)N[C@H](C(=O)N[C@H](C(=O)N[C@@H](CCCNC(=N)N)C(=O)N[C@@H](CCC(N)=O)C(=O)N[C@@H](CCCNC(=N)N)C(=O)N[C@@H](Cc1ccc(O)cc1)C(N)=O)[C@@H](C)O)C(C)C [Example 25] | – | – | – | – | – | – | – | – | −68%
